Target: T1, PAN endonuclease domain from influenza A type virus (H1N1) (PAN, residues 1-197) (Influenza A virus, UniProt P03433)
T1 construct: influenza A type virus (H1N1) (PAN, residues 1-197) was cloned; His tag (inferred from pET-28a vector and IMAC purification); made in house; host or cells: E. coli BL21 (DE3)
Type: biochemical
Settings: ssDNA, 1 h, 37 °C; conivaptan 0–[…], dutasteride 0–1000 μM, rifaximin 0–1000 μM, lurasidone 0–3000 μM (Figure S1)

Row | Compound | inhibition of the endonuclease activity of PAN (in words)
1 | C[C@]12C=CC(=O)N[C@@H]1CC[C@@H]1[C@@H]2CC[C@]2(C)[C@@H](C(=O)Nc3cc(C(F)(F)F)ccc3C(F)(F)F)CC[C@@H]12 [dutasteride] | no inhibition
2 | CS(=O)(=O)c1cccc(C[C@H](NC(=O)c2c(Cl)cc3c(c2Cl)CCN(C(=O)c2ccc4ccoc4c2)C3)C(=O)O)c1 [lifitegrast] | inhibitory effect
3 | O=C1[C@@H]2[C@H]3CC[C@H](C3)[C@@H]2C(=O)N1C[C@@H]1CCCC[C@H]1CN1CCN(c2nsc3ccccc23)CC1 [lurasidone] | no inhibition
4 | CO[C@H]1/C=C/O[C@@]2(C)Oc3c(C)c(O)c4c(O)c(c5c(nc6cc(C)ccn65)c4c3C2=O)NC(=O)/C(C)=C\C=C\[C@H](C)[C@H](O)[C@@H](C)[C@@H](O)[C@@H](C)[C@H](OC(C)=O)[C@@H]1C [rifaximin] | no inhibition
